According to patent publication US10206906B2, “Synergistic combination of a phenolic-rich maple syrup extract and an antibiotic” (priority 2015, dated 2019):
Converted amounts (≈) assume the structure as drawn.

Legend:
E. coli CFT073 [1] = assay: Determination of minimum inhibitory concentration (MIC); assay type: cell-based; conditions: Escherichia coli, CFT073, 18 h
Procedure: (§1) A range of concentration of antibiotics, ciprofloxacin (0.0003-0.25 μg mL^−1) and carbenicillin (0.5-512 μg mL^−1), are chosen due to their known potency against all four bacterial strains. Dilutions are prepared in flat bottom, 96 well microtitre plates (Falcon™, Corning™, Fisher Scientific, ON, Canada). Each well of a microtitre plate is then inoculated with the desired bacterial strain (grown in MHB-II and diluted to […]) and the plate is incubated at 37° C. for 18 h under static conditions. Bacterial growth is assessed by (i) monitoring the optical density of the cell suspension in each well at 600 nm (OD600 nm), and (ii) the resazurin microtitre plate assay. In the resazurin microtitre plate assay, each well of a microtitre plate is supplemented with 20 μM resazurin, incubated in the dark for 20 min at room temperature, followed by fluorescence measurements at ex/em 570/590 nm using a TECAN Infinite M200 Pro microplate reader (Tecan Group Ltd., Switzerland). The lowest concentration of a compound able to prevent increase in OD600 nm and resazurin fluorescence intensity is recorded as the MIC for that compound.

P. aeruginosa PA14 [2] = assay: as above; assay type: cell-based; conditions: Pseudomonas aeruginosa, PA14, 18 h
Procedure: as §1

P. aeruginosa PAO1 [3] = assay: as above; assay type: cell-based; conditions: Pseudomonas aeruginosa, PAO1, 18 h
Procedure: as §1

P. mirabilis HI4320 [4] = assay: as above; assay type: cell-based; conditions: Proteus mirabilis, HI4320, 18 h
Procedure: as §1

P. mirabilis HI4320 [5] = assay: Checkerboard microdilution assay (growth inhibition synergy); assay type: cell-based, Proteus mirabilis
Procedure: (§2) The checkerboard microdilution assay is used for evaluation of in vitro antimicrobial synergy between two compounds (i.e., antibiotic/PRMSE, antibiotic/pure phenolic compound, and pure phenolic compounds with each other). Two-fold serial dilutions are prepared in MHB-II for each of the two compounds under study. The serial dilutions are then loaded into 96 well plates to achieve combinations having different concentrations of each of the two compounds. Each well is subsequently inoculated with 10^6 CFU mL^−1 of the desired bacterial strain and incubated at 37° C. for 18 h under static conditions. The Fractional Inhibitory Concentration Index (FICI) for each combination is calculated by using the following formula: FICcomponent 1=MICcomponent 1, in combination/MICcomponent 1,alone FICI=FICcomponent 1+FICcomponent 2
(§3) The FICIs are interpreted as follows: FICI of […] (synergy); 0.5<FICI ≤1 (no interaction/indifference); FICI of >4 (antagonism).

P. aeruginosa PA14 [6] = assay: as above; assay type: cell-based, Pseudomonas aeruginosa
Procedure: as §2, §3

P. aeruginosa PAO1 [7] = assay: as above; assay type: cell-based, Pseudomonas aeruginosa
Procedure: as §2, §3

[8] = test system: outer membrane of E. coli CFT073; assay: Outer membrane permeabilization, NPN uptake assay; assay type: cell-based, Escherichia coli; conditions: sub-MIC; concentration giving maximal increase in NPN uptake
Procedure: (§4) The cells are harvested, washed with 5 mM HEPES buffer (pH 7.2), and resuspended in the same volume (10 mL) of 5 mM HEPES buffer (pH 7.2) containing 1 mM N-ethylmaleimide (NEM, Sigma-Aldrich Canada). Aliquots (1 mL) are mixed with NPN to a final concentration of 10 μM (in cell suspension) and fluorescence is measured using the microplate reader (ex/em 350/420 nm).

[9] = test system: outer membrane of P. mirabilis HI4320; assay: Outer membrane permeabilization, NPN uptake assay; assay type: cell-based, Proteus mirabilis; conditions: sub-MIC; concentration giving maximal increase in NPN uptake
Procedure: as §4

[10] = test system: outer membrane of P. aeruginosa PAO1; assay: Outer membrane permeabilization, NPN uptake assay; assay type: cell-based, Pseudomonas aeruginosa; conditions: sub-MIC; concentration giving maximal increase in NPN uptake
Procedure: as §4

[11] = test system: cell membrane of P. aeruginosa PA14; assay: BacLight membrane integrity assay; assay type: cell-based, Pseudomonas aeruginosa; conditions: PRMSE, catechol at 4 × MIC for 10 min; CTAB 10 μM; untreated = 100
Procedure: (§5) The BacLight kit (L-13152, Invitrogen™, Life Technologies Inc., Canada) is used to assess cell membrane damage. Overnight bacterial cultures are diluted 1:40 in fresh MHBII broth to a final volume of 5 mL, grown to an OD600 of 0.5-0.6, washed with filter-sterilized 10 mM phosphate buffered saline (PBS, pH 7.0) and resuspended in 1/10 of the original volume. […] Cultures are incubated at room temperature (21±2° C.) on a tube rocker for 10 min. At the end of the incubation period, an aliquot is taken for CFU counts and the remaining suspension is washed with 10 mM PBS and resuspended to an OD600) of 0.3. An aliquot (100 μL) of each bacterial suspension is removed and added to a 96-well, black, clear-bottom plate (Corning™, Fisher Scientific, ON, Canada) along with an equal volume of the BacLight™ reagent (2× stock solution, L13152, Invitrogen™, Life Technologies Inc., Canada) and the plates are incubated for 10 min at room temperature in the dark. At the end of the incubation period, fluorescence intensity is recorded for both kit components, SYTO-9 (ex/em 485/530 nm) and propidium iodide (ex/em 485/645 nm), using the microplate reader. Fluorescence readings from samples are normalized to the values obtained from untreated control to determine the ratio of membrane compromised cells to cells with intact membrane. Cetyltrimethylammonium bromide (CTAB, Sigma-Aldrich Canada), a cationic detergent that is known to cause membrane damage, is used at concentration of 10 μM as a positive control for membrane disruption.

[12] = test system: cell membrane of P. aeruginosa PAO1; assay: BacLight membrane integrity assay; assay type: cell-based, Pseudomonas aeruginosa; conditions: PRMSE, catechol at 4 × MIC for 10 min; CTAB 10 μM; untreated = 100
Procedure: as §5

E. coli CFT073 [13] = assay: Bacterial colony forming ability (CFU counts after exposure); assay type: cell-based, Escherichia coli; conditions: log decrease vs untreated control, 4 × MIC, 10 min, CTAB 10 μM
Procedure: as §5

P. aeruginosa PA14 [14] = assay: as above; assay type: cell-based, Pseudomonas aeruginosa; conditions: log decrease vs untreated control, 4 × MIC, 10 min, CTAB 10 μM
Procedure: as §5

P. aeruginosa PAO1 [15] = assay: as above; assay type: cell-based, Pseudomonas aeruginosa; conditions: log decrease vs untreated control; 4 × MIC, 10 min; CTAB 10 μM
Procedure: as §5

[16] = ciprofloxacin in combination with the labelled phenolic constituent
[17] = labelled constituent + gallic acid, * = synergistic
[18] = labelled constituent combined with gallic acid
[19] = labelled phenolic constituent in combination with ciprofloxacin

## Oc1ccccc1O [catechol, 1,2-dihydroxybenzene]
E. coli CFT073 [1]
  MIC: 1250 µg/mL (≈ 11.4 mM)
P. aeruginosa PA14 [2]
  MIC: 2500 µg/mL (≈ 22.7 mM)
P. aeruginosa PAO1 [3]
  MIC: 2500 µg/mL (≈ 22.7 mM)
P. mirabilis HI4320 [4]
  MIC: 1250 µg/mL (≈ 11.4 mM)
P. mirabilis HI4320 [5]; [16]
  FIC of ciprofloxacin: 0.25
P. mirabilis HI4320 [5]; [17]
  FICI, gallic acid: 0.37*
P. mirabilis HI4320 [5]; [18]
  FIC, gallic acid: 0.13
P. mirabilis HI4320 [5]; [19]
  FIC of compound: 0.25
P. aeruginosa PA14 [6]; [16]
  FIC of ciprofloxacin: 0.25
P. aeruginosa PA14 [6]; [17]
  FICI, gallic acid: 0.37*
P. aeruginosa PA14 [6]; [18]
  FIC, gallic acid: 0.25
P. aeruginosa PA14 [6]; [19]
  FIC of compound: 0.25
P. aeruginosa PAO1 [7]; [16]
  FIC of ciprofloxacin: 0.25
P. aeruginosa PAO1 [7]; [17]
  FICI, gallic acid: 0.5*
P. aeruginosa PAO1 [7]; [18]
  FIC, gallic acid: 0.25
P. aeruginosa PAO1 [7]; [19]
  FIC of compound: 0.25
[8]
  Minimum permeabilization concentration (NPN assay): 0.06 mg/mL
[9]
  Minimum permeabilization concentration: 1 mg/mL
[10]
  Minimum permeabilization concentration: 0.5 mg/mL
[11]
  % cells with uncompromised membrane: 78.6%
[12]
  % cells with uncompromised membrane: 80.4%
E. coli CFT073 [13]
  Bacterial colony forming ability (Δ log CFU mL^−1): 2.3 Δ log CFU mL^−1
E. coli CFT073 [13]; listed as Catechol
  Bacterial colony forming ability (Δ log CFU mL^−1): ≥ 1.5 Δ log CFU mL^−1
P. aeruginosa PA14 [14]
  Bacterial colony forming ability (Δ log CFU mL^−1): 1.9 Δ log CFU mL^−1
P. aeruginosa PA14 [14]; listed as Catechol
  Bacterial colony forming ability (Δ log CFU mL^−1): ≥ 1.5 Δ log CFU mL^−1
P. aeruginosa PAO1 [15]
  Bacterial colony forming ability (Δ log CFU mL^−1): 1.5 Δ log CFU mL^−1
